Test results reported in patent US9695155B2, “Herbicidal substituted pyrimidinyloxy benzene compounds” (E. I. DU PONT DE NEMOURS AND COMPANY, priority 2013, dated 2017).

How the values were obtained:
ragweed = assay: Test C postemergence; format: in vivo, Ambrosia elatior; details: for Plant response rating (0 to 100), Ragweed: postemergence; for Plant response rating, Ragweed: Postemergence, scale 0 to 100 (0 no effect, 100 complete control)
Outline: (§1)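 Seeds were sown in loam–sand blend and sprayed preemergence, while plants at 1- to 4-leaf stage (2–18 cm) in peat-based medium received postemergence sprays; test chemicals were formulated in a non-phytotoxic solvent with surfactant. After 13–15 days in a greenhouse, injury was rated visually against controls, 0 (no effect) to 100 (complete control).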

pigweed = assay: Test A preemergence; format: in vivo, Amaranthus retroflexus; details: for Plant response rating, Pigweed: 125 g ai/ha, 0 to 100 scale where 0 is no effect and 100 is complete control; for Pigweed plant response rating: 500 g ai/ha, 0 to 100 scale, 0 no effect, 100 complete control, approx. 10 days
Outline: (§2)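 Injury scores run from 0, no effect, to 100, complete control, judged by eye against untreated plants roughly 10 days after treatment. Chemicals carried a surfactant in a non-phytotoxic solvent and went onto loam–sand soil preemergence or onto one- to two-leaf seedlings postemergence.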

yellow nutsedge = assay: Test C preemergence; format: in vivo, Cyperus esculentus; details: for Nutsedge, Yellow plant response rating: preemergence; for Plant response rating, Nutsedge, Yellow: Preemergence, 31 g ai/ha, scale 0 to 100, 0 no effect, 100 complete control
Outline: as §1

lambsquarters = assay: Test C postemergence; format: in vivo, Chenopodium album; details: for Plant response rating (0 to 100), Lambsquarters: postemergence; for Plant response rating, Lambsquarters: Postemergence, scale 0 to 100 (0 no effect, 100 complete control)
Outline: as §1

large (Lg) crabgrass [1] = assay: Test C postemergence; format: in vivo, Digitaria sanguinalis; details: for Plant response rating, Crabgrass, Large: Postemergence
Outline: as §1

large (Lg) crabgrass [2] = assay: Test A preemergence; format: in vivo, Digitaria sanguinalis; details: for Plant response rating, Crabgrass, Large: 125 g ai/ha, 0 to 100 scale where 0 is no effect and 100 is complete control; for Crabgrass, Large plant response rating: 500 g ai/ha, 0 to 100 scale, 0 no effect, 100 complete control, approx. 10 days
Outline: as §2

barnyardgrass = assay: Test A preemergence; format: in vivo, Echinochloa crus-galli; details: for Plant response rating, Barnyardgrass: 125 g ai/ha, 0 to 100 scale where 0 is no effect and 100 is complete control; for Barnyardgrass plant response rating: 500 g ai/ha, 0 to 100 scale, 0 no effect, 100 complete control, approx. 10 days
Outline: as §2

giant foxtail = assay: Test C preemergence; format: in vivo, Setaria faberii; details: for Foxtail, Giant plant response rating: preemergence; for Plant response rating, Foxtail, Giant: Preemergence, 31 g ai/ha, scale 0 to 100, 0 no effect, 100 complete control
Outline: as §1

morningglory = assay: Test C postemergence; format: in vivo, Ipomoea coccinea; details: for Plant response rating (0 to 100), Morningglory: postemergence; for Plant response rating, Morningglory: Postemergence, scale 0 to 100 (0 no effect, 100 complete control)
Outline: as §1

rice = assay: Test B flooded paddy test; format: in vivo, Oryza sativa; details: Flood, 250 g ai/ha; 0 to 100 scale where 0 is no effect and 100 is complete control
Outline: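 Plants at 2-leaf stage; pots flooded to 3 cm above soil and compound applied directly into paddy water, depth held throughout. After 13 to 15 days in greenhouse, visual rating versus controls on 0 (no effect) to 100 (complete control) scale.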

oilseed rape = assay: Test C postemergence; format: in vivo, Brassica napus; details: for Plant response rating (0 to 100), Oilseed Rape: postemergence; for Plant response rating, Oilseed Rape: Postemergence, scale 0 to 100 (0 no effect, 100 complete control)
Outline: as §1

Italian ryegrass = assay: Test C postemergence; format: in vivo, Lolium multiflorum; details: for Plant response rating (0 to 100), Ryegrass, Italian: postemergence; for Plant response rating, Ryegrass, Italian: Postemergence, scale 0 to 100 (0 no effect, 100 complete control)
Outline: as §1

wild oat = assay: Test C postemergence; format: in vivo, Avena fatua; details: for Plant response rating (0 to 100), Oat, Wild: postemergence; for Plant response rating, Oat, Wild: Postemergence, scale 0 to 100 (0 no effect, 100 complete control)
Outline: as §1

corn = assay: Test A preemergence; format: in vivo, Zea mays; details: for Plant response rating, Corn: 125 g ai/ha, 0 to 100 scale where 0 is no effect and 100 is complete control; for Corn plant response rating: 500 g ai/ha, 0 to 100 scale, 0 no effect, 100 complete control, approx. 10 days
Outline: as §2

large (Lg) crabgrass [3] = assay: Test A postemergence; format: in vivo, Digitaria sanguinalis
Outline: as §2

[4] = 62 g ai/ha, scale 0 (no effect) to 100 (complete control)
[5] = 125 g ai/ha, scale 0 (no effect) to 100 (complete control)
[6] = 250 g ai/ha, scale 0 (no effect) to 100 (complete control)
[7] = 31 g ai/ha, scale 0 to 100 (0 no effect, 100 complete control), 13 to 15 days
[8] = 62 g ai/ha, scale 0 to 100 (0 no effect, 100 complete control)
[9] = 125 g ai/ha, 0 to 100 scale where 0 is no effect and 100 is complete control
[10] = 16 g ai/ha, scale 0 to 100 (0 no effect, 100 complete control)

## N#Cc1cccc(Oc2ncc(F)cn2)c1-n1cc(Cl)cn1 [Compound 73]
ragweed; 125 g ai/ha
  Plant response rating (0 to 100), Ragweed: 50
ragweed; 250 g ai/ha
  Plant response rating (0 to 100), Ragweed: 65
ragweed; 31 g ai/ha, 13 to 15 days
  Plant response rating, Ragweed: 30
ragweed; 62 g ai/ha
  Plant response rating, Ragweed: 35
pigweed
  Plant response rating, Pigweed: 100
  Pigweed plant response rating: 100
Yellow nutsedge; [4]
  Nutsedge, Yellow plant response rating: 0
Yellow nutsedge; [5]
  Nutsedge, Yellow plant response rating: 5
Yellow nutsedge; [6]
  Nutsedge, Yellow plant response rating: 15
Yellow nutsedge
  Plant response rating, Nutsedge, Yellow: 0
lambsquarters; 125 g ai/ha
  Plant response rating (0 to 100), Lambsquarters: 70
lambsquarters; 250 g ai/ha
  Plant response rating (0 to 100), Lambsquarters: 80
lambsquarters; 31 g ai/ha, 13 to 15 days
  Plant response rating, Lambsquarters: 25
lambsquarters; 62 g ai/ha
  Plant response rating, Lambsquarters: 55
Large (Lg) crabgrass [1]; 125 g ai/ha, postemergence
  Plant response rating (0 to 100), Crabgrass, Large: 10
Large (Lg) crabgrass [1]; 250 g ai/ha, postemergence
  Plant response rating (0 to 100), Crabgrass, Large: 20
Large (Lg) crabgrass [1]; [7]
  Plant response rating, Crabgrass, Large: 5
Large (Lg) crabgrass [1]; [8]
  Plant response rating, Crabgrass, Large: 10
Large (Lg) crabgrass [2]
  Plant response rating, Crabgrass, Large: 100
  Crabgrass, Large plant response rating: 100
barnyardgrass
  Plant response rating, Barnyardgrass: 90
  Barnyardgrass plant response rating: 100
Giant foxtail; [4]
  Foxtail, Giant plant response rating: 100
Giant foxtail; [5]
  Foxtail, Giant plant response rating: 100
Giant foxtail; [6]
  Foxtail, Giant plant response rating: 100
Giant foxtail
  Plant response rating, Foxtail, Giant: 85
morningglory; 125 g ai/ha
  Plant response rating (0 to 100), Morningglory: 85
morningglory; 250 g ai/ha
  Plant response rating (0 to 100), Morningglory: 85
morningglory; 31 g ai/ha, 13 to 15 days
  Plant response rating, Morningglory: 65
morningglory; 62 g ai/ha
  Plant response rating, Morningglory: 65
rice
  Plant response rating, Rice: 0
Oilseed rape; 125 g ai/ha
  Plant response rating (0 to 100), Oilseed Rape: 60
Oilseed rape; 250 g ai/ha
  Plant response rating (0 to 100), Oilseed Rape: 80
Oilseed rape; 31 g ai/ha, 13 to 15 days
  Plant response rating, Oilseed Rape: 10
Oilseed rape; 62 g ai/ha
  Plant response rating, Oilseed Rape: 30
Italian ryegrass; 125 g ai/ha
  Plant response rating (0 to 100), Ryegrass, Italian: 0
Italian ryegrass; 250 g ai/ha
  Plant response rating (0 to 100), Ryegrass, Italian: 5
Italian ryegrass; 31 g ai/ha, 13 to 15 days
  Plant response rating, Ryegrass, Italian: 0
Italian ryegrass; 62 g ai/ha
  Plant response rating, Ryegrass, Italian: 0
Wild oat; 125 g ai/ha
  Plant response rating (0 to 100), Oat, Wild: 10
Wild oat; 250 g ai/ha
  Plant response rating (0 to 100), Oat, Wild: 15
Wild oat; 31 g ai/ha, 13 to 15 days
  Plant response rating, Oat, Wild: 5
Wild oat; 62 g ai/ha
  Plant response rating, Oat, Wild: 5
corn
  Plant response rating, Corn: 20
  Corn plant response rating: 70
Large (Lg) crabgrass [3]; [9]
  Plant response rating, Crabgrass, Large: 90
Large (Lg) crabgrass [3]; 500 g ai/ha, 0 to 100 scale, 0 no effect, 100 complete control
  Plant response rating, Crabgrass, Large: 100

## CCOc1cnn(-c2c(C#N)cccc2Oc2ncc(Cl)cn2)c1 [Compound 92]
ragweed; 125 g ai/ha
  Plant response rating (0 to 100), Ragweed: 55
ragweed; 31 g ai/ha, 13 to 15 days
  Plant response rating, Ragweed: 40
ragweed; 62 g ai/ha
  Plant response rating, Ragweed: 50
pigweed
  Plant response rating, Pigweed: 100
  Pigweed plant response rating: 100
Yellow nutsedge; [10]
  Nutsedge, Yellow plant response rating: 5
Yellow nutsedge; [4]
  Nutsedge, Yellow plant response rating: 50
Yellow nutsedge; [5]
  Nutsedge, Yellow plant response rating: 75
Yellow nutsedge
  Plant response rating, Nutsedge, Yellow: 5
lambsquarters; 125 g ai/ha
  Plant response rating (0 to 100), Lambsquarters: 75
lambsquarters; 31 g ai/ha, 13 to 15 days
  Plant response rating, Lambsquarters: 35
lambsquarters; 62 g ai/ha
  Plant response rating, Lambsquarters: 40
Large (Lg) crabgrass [1]; 16 g ai/ha, postemergence, visual rating, scale 0 to 100 (0 no effect, 100 complete control), 13 to 15 days
  Crabgrass, Large plant response rating: 5
Large (Lg) crabgrass [1]; 125 g ai/ha, postemergence
  Plant response rating (0 to 100), Crabgrass, Large: 10
Large (Lg) crabgrass [1]; [7]
  Plant response rating, Crabgrass, Large: 5
Large (Lg) crabgrass [1]; [8]
  Plant response rating, Crabgrass, Large: 5
Large (Lg) crabgrass [2]
  Plant response rating, Crabgrass, Large: 100
  Crabgrass, Large plant response rating: 100
barnyardgrass
  Plant response rating, Barnyardgrass: 60
  Barnyardgrass plant response rating: 100
Giant foxtail; [10]
  Foxtail, Giant plant response rating: 30
Giant foxtail; [4]
  Foxtail, Giant plant response rating: 100
Giant foxtail; [5]
  Foxtail, Giant plant response rating: 100
Giant foxtail
  Plant response rating, Foxtail, Giant: 98
morningglory; 125 g ai/ha
  Plant response rating (0 to 100), Morningglory: 85
morningglory; 31 g ai/ha, 13 to 15 days
  Plant response rating, Morningglory: 85
morningglory; 62 g ai/ha
  Plant response rating, Morningglory: 90
rice
  Plant response rating, Rice: 20
Oilseed rape; 125 g ai/ha
  Plant response rating (0 to 100), Oilseed Rape: 70
Oilseed rape; 31 g ai/ha, 13 to 15 days
  Plant response rating, Oilseed Rape: 45
Oilseed rape; 62 g ai/ha
  Plant response rating, Oilseed Rape: 60
Italian ryegrass; 125 g ai/ha
  Plant response rating (0 to 100), Ryegrass, Italian: 35
Italian ryegrass; 31 g ai/ha, 13 to 15 days
  Plant response rating, Ryegrass, Italian: 5
Italian ryegrass; 62 g ai/ha
  Plant response rating, Ryegrass, Italian: 5
Wild oat; 125 g ai/ha
  Plant response rating (0 to 100), Oat, Wild: 15
Wild oat; 31 g ai/ha, 13 to 15 days
  Plant response rating, Oat, Wild: 5
Wild oat; 62 g ai/ha
  Plant response rating, Oat, Wild: 10
corn
  Plant response rating, Corn: 10
  Corn plant response rating: 40
Large (Lg) crabgrass [3]; [9]
  Plant response rating, Crabgrass, Large: 80
Large (Lg) crabgrass [3]; 500 g ai/ha, 0 to 100 scale where 0 is no effect and 100 is complete control
  Plant response rating, Crabgrass, Large: 90
